Data on five molecules can be found in patent US12150998B2, “Bicyclic peptide ligands specific for P-selectin” (BicycleTx Limited, priority 2021, dated 2024).

This assay addresses T1, human P-Selectin protein (Homo sapiens, UniProt P16109).
T1 sequence (P16109 42-830): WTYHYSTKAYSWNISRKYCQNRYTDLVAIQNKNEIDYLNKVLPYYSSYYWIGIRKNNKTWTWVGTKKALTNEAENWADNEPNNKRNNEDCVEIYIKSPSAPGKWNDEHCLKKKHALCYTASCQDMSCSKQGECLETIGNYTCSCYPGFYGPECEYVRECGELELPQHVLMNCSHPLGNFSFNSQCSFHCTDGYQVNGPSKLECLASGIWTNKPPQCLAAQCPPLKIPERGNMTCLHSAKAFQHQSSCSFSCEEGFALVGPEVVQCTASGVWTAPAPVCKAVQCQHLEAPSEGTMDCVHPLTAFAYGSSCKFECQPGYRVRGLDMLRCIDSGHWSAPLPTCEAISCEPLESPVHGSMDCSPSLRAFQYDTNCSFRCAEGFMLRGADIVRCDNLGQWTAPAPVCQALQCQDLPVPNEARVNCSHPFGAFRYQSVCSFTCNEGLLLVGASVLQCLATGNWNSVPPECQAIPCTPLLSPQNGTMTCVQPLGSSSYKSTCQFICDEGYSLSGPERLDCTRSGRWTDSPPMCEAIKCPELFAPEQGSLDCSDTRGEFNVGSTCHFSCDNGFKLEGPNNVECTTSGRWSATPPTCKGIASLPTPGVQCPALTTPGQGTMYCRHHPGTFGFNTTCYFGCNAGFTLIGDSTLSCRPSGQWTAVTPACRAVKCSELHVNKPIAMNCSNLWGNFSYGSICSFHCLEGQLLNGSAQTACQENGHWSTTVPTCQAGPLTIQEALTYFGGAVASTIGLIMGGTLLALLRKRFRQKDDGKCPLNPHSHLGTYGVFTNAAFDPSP
The assay is described as follows: SPR binding assay (Biacore). As to conditions: recombinant biotinylated human P-Selectin, 25° C. As for the experimental part:
Biacore experiments were performed to determine ka (M−1s−1), kd (s−1), KD (nM) values of monomeric peptides binding to human Selectin proteins. Recombinant biotinylated human P-Selectin protein was used. For analysis of binding, either a Biacore 3000 or 5200 instrument was used with a CMS sensor chip (GE Healthcare). For sensor chip surface preparation, streptavidin was immobilized on the chip using standard amine-coupling chemistry at 25° C. with HBS-N (10 mM HEPES, 0.15 M NaCl, pH 7.4) as the running buffer. The carboxymethyl dextran surface was activated with a 12 min injection of a 1:1 ratio of 0.4 M 1-ethyl-3-(3-dim ethyl aminopropyl) carbodiimide hydrochloride (EDC)/0.1 M N-hydroxy succinimide (NHS) at a flow rate of 10 μl/min. For capture of streptavidin, protein was diluted to 0.2 mg/ml in 10 mM sodium acetate (pH 4.5) and captured by injecting 70 μl onto the activated chip surface. Residual activated groups were blocked with a 7 min injection of 1 M ethanolamine (pH 8.5). Biotinylated protein stock was diluted 1:100 in HBS-N and captured on one flow cell at 5 μl/min to a level of 1000-1500 RU. Buffer was changed to PBS/0.05% Tween 20 and a dilution series of the peptides was prepared in this buffer with a final DMSO concentration of 0.5%. The top concentration of the analyte varied from 200 nM to 50 μM; depending on predicted affinity of the interaction. In all cases a titration was performed with either seven 2-fold dilutions or five 3-fold dilutions. The SPR analysis was run at 25° C. with a flow rate of 50-80 μl/min with 60 seconds association and a suitable disassociation period (100-900 seconds). Data were corrected for DMSO excluded volume effects. All data were double-referenced for blank injections and reference surface using standard processing procedures and data processing and kinetic fitting were performed using Scrubber software, version 2.0c (BioLogic Software). Data were fitted using mass transport model allowing for mass transport effects where appropriate.

Setting [1] is: read-out: Affinity KD determined by SPR.

Like-named read-outs stand apart in the source and are kept apart here. Starred links: 1 amine or outer side, 2 acyl side, 3 side chain; linkers in the order of their positions; H or OH if unused. Positions of bridges follow the written chain, without caps; N, C: chain ends. Chains are numbered I, II in the order given. X3 = O=C(CCOCCN(CCOCCC(=O)NCCOCCOCCOCCOCCOCCOCCOCCOCCOCCOCCOCCOCCOCCOCCOCCOCCOCCOCCOCCOCCOCCOCCOCCn1cc(CCC(=O)[*:2])nn1)CCOCCC(=O)NCCOCCOCCOCCOCCOCCOCCOCCOCCOCCOCCOCCOCCOCCOCCOCCOCCOCCOCCOCCOCCOCCOCCOCCn1cc(CCC(=O)[*:3])nn1)NCCOCCOCCOCCOCCOCCOCCOCCOCCOCCOCCOCCOCCOCCOCCOCCOCCOCCOCCOCCOCCOCCOCCOCCn1cc(CCC(=O)[*:1])nn1; X4 = O=C(CCOCCN(CCOCCC(=O)NCCOCCOCCOCCOCCOCCOCCOCCOCCOCCOCCn1cc(CCC(=O)[*:2])nn1)CCOCCC(=O)NCCOCCOCCOCCOCCOCCOCCOCCOCCOCCOCCn1cc(CCC(=O)[*:3])nn1)NCCOCCOCCOCCOCCOCCOCCOCCOCCOCCOCCn1cc(CCC(=O)[*:1])nn1; TATA = O=C(CC[*:1])N1CN(C(=O)CC[*:2])CN(C(=O)CC[*:3])C1

As usually defined, the Kd is a measure of binding affinity in units of concentration. On to `CSCC[C@@H]1NC(=O)[C@H](Cc2ccc(O)cc2)NC(=O)[C@@H](NC(=O)[C@H](C)NC(C)=O)CSCCC(=O)N2CN3CN(C2)C(=O)CCSC[C@H](NC(=O)[C@H](Cc2c[nH]c4ccccc24)NC(=O)[C@H](CCC(=O)O)NC1=O)C(=O)N[C@@H](CC(=O)O)C(=O)N[C@@H](C(C)C)C(=O)N[C@@H]([C@@H](C)O)C(=O)N[C@@H](CC(=O)O)C(=O)N[C@@H](Cc1ccc(O)cc1)C(=O)NCC(=O)N[C@H](C(=O)N[C@@H](CCCCNC(=O)CCc1cn(CCOCCOCCOCCOCCOCCOCCOCCOCCOCCOCCNC(=O)CCOCC(COCCC(=O)NCCOCCOCCOCCOCCOCCOCCOCCOCCOCCOCCn2cc(CCC(=O)NCCCC[C@H](NC(=O)[C@@H]4CSCCC(=O)N5CN6CN(C5)C(=O)CCSC[C@H](NC(=O)[C@H](Cc5c[nH]c7ccccc57)NC(=O)[C@H](CCC(=O)O)NC(=O)[C@H](CCSC)NC(=O)[C@H](Cc5ccc(O)cc5)NC(=O)[C@@H](NC(=O)[C@H](C)NC(C)=O)CSCCC6=O)C(=O)N[C@@H](CC(=O)O)C(=O)N[C@@H](C(C)C)C(=O)N[C@@H]([C@@H](C)O)C(=O)N[C@@H](CC(=O)O)C(=O)N[C@@H](Cc5ccc(O)cc5)C(=O)NCC(=O)N4)C(N)=O)nn2)(COCCC(=O)NCCOCCOCCOCCOCCOCCOCCOCCOCCOCCOCCn2cc(CCC(=O)NCCCC[C@H](NC(=O)[C@@H]4CSCCC(=O)N5CN6CN(C5)C(=O)CCSC[C@H](NC(=O)[C@H](Cc5c[nH]c7ccccc57)NC(=O)[C@H](CCC(=O)O)NC(=O)[C@H](CCSC)NC(=O)[C@H](Cc5ccc(O)cc5)NC(=O)[C@@H](NC(=O)[C@H](C)NC(C)=O)CSCCC6=O)C(=O)N[C@@H](CC(=O)O)C(=O)N[C@@H](C(C)C)C(=O)N[C@@H]([C@@H](C)O)C(=O)N[C@@H](CC(=O)O)C(=O)N[C@@H](Cc5ccc(O)cc5)C(=O)NCC(=O)N4)C(N)=O)nn2)COCCC(=O)NCCOCCOCCOCCOCCOCCOCCOCCOCCOCCOCCn2cc(CCC(=O)NCCCC[C@H](NC(=O)[C@@H]4CSCCC(=O)N5CN6CN(C5)C(=O)CCSC[C@H](NC(=O)[C@H](Cc5c[nH]c7ccccc57)NC(=O)[C@H](CCC(=O)O)NC(=O)[C@H](CCSC)NC(=O)[C@H](Cc5ccc(O)cc5)NC(=O)[C@@H](NC(=O)[C@H](C)NC(C)=O)CSCCC6=O)C(=O)N[C@@H](CC(=O)O)C(=O)N[C@@H](C(C)C)C(=O)N[C@@H]([C@@H](C)O)C(=O)N[C@@H](CC(=O)O)C(=O)N[C@@H](Cc5ccc(O)cc5)C(=O)NCC(=O)N4)C(N)=O)nn2)nn1)C(N)=O)CSCCC3=O` [BCY5464], for which the Kd (Affinity KD determined by SPR) came out at 37.3 nM.
Same read-out and setting: to `CSCC[C@@H]1NC(=O)[C@H](Cc2ccc(O)cc2)NC(=O)[C@@H](NC(=O)[C@H](C)NC(C)=O)CSCCC(=O)N2CN3CN(C2)C(=O)CCSC[C@H](NC(=O)[C@H](Cc2c[nH]c4ccccc24)NC(=O)[C@H](CCC(=O)O)NC1=O)C(=O)N[C@@H](CC(=O)O)C(=O)N[C@@H](C(C)C)C(=O)N[C@@H]([C@@H](C)O)C(=O)N[C@@H](CC(=O)O)C(=O)N[C@@H](Cc1ccc(O)cc1)C(=O)NCC(=O)N[C@H](C(=O)N[C@@H](CCCCNC(=O)CCc1cn(CCOCCOCCOCCOCCOCCOCCOCCOCCOCCOCCOCCOCCOCCOCCOCCOCCOCCOCCOCCOCCOCCOCCOCCNC(=O)CCOCC(COCCC(=O)NCCOCCOCCOCCOCCOCCOCCOCCOCCOCCOCCOCCOCCOCCOCCOCCOCCOCCOCCOCCOCCOCCOCCOCCn2cc(CCC(=O)NCCCC[C@H](NC(=O)[C@@H]4CSCCC(=O)N5CN6CN(C5)C(=O)CCSC[C@H](NC(=O)[C@H](Cc5c[nH]c7ccccc57)NC(=O)[C@H](CCC(=O)O)NC(=O)[C@H](CCSC)NC(=O)[C@H](Cc5ccc(O)cc5)NC(=O)[C@@H](NC(=O)[C@H](C)NC(C)=O)CSCCC6=O)C(=O)N[C@@H](CC(=O)O)C(=O)N[C@@H](C(C)C)C(=O)N[C@@H]([C@@H](C)O)C(=O)N[C@@H](CC(=O)O)C(=O)N[C@@H](Cc5ccc(O)cc5)C(=O)NCC(=O)N4)C(N)=O)nn2)(COCCC(=O)NCCOCCOCCOCCOCCOCCOCCOCCOCCOCCOCCOCCOCCOCCOCCOCCOCCOCCOCCOCCOCCOCCOCCOCCn2cc(CCC(=O)NCCCC[C@H](NC(=O)[C@@H]4CSCCC(=O)N5CN6CN(C5)C(=O)CCSC[C@H](NC(=O)[C@H](Cc5c[nH]c7ccccc57)NC(=O)[C@H](CCC(=O)O)NC(=O)[C@H](CCSC)NC(=O)[C@H](Cc5ccc(O)cc5)NC(=O)[C@@H](NC(=O)[C@H](C)NC(C)=O)CSCCC6=O)C(=O)N[C@@H](CC(=O)O)C(=O)N[C@@H](C(C)C)C(=O)N[C@@H]([C@@H](C)O)C(=O)N[C@@H](CC(=O)O)C(=O)N[C@@H](Cc5ccc(O)cc5)C(=O)NCC(=O)N4)C(N)=O)nn2)COCCC(=O)NCCOCCOCCOCCOCCOCCOCCOCCOCCOCCOCCOCCOCCOCCOCCOCCOCCOCCOCCOCCOCCOCCOCCOCCn2cc(CCC(=O)NCCCC[C@H](NC(=O)[C@@H]4CSCCC(=O)N5CN6CN(C5)C(=O)CCSC[C@H](NC(=O)[C@H](Cc5c[nH]c7ccccc57)NC(=O)[C@H](CCC(=O)O)NC(=O)[C@H](CCSC)NC(=O)[C@H](Cc5ccc(O)cc5)NC(=O)[C@@H](NC(=O)[C@H](C)NC(C)=O)CSCCC6=O)C(=O)N[C@@H](CC(=O)O)C(=O)N[C@@H](C(C)C)C(=O)N[C@@H]([C@@H](C)O)C(=O)N[C@@H](CC(=O)O)C(=O)N[C@@H](Cc5ccc(O)cc5)C(=O)NCC(=O)N4)C(N)=O)nn2)nn1)C(N)=O)CSCCC3=O` [BCY5465] belongs 140 nM.
Turning to `CSCC[C@@H]1NC(=O)[C@H](Cc2ccc(O)cc2)NC(=O)[C@@H](NC(=O)[C@H](C)NC(=O)CCc2cn(CCOCCOCCOCCOCCOCCOCCOCCOCCOCCOCCNC(=O)CCCC(=O)NCCOCCOCCOCCOCCOCCOCCOCCOCCOCCOCCn3cc(CCC(=O)N[C@@H](C)C(=O)N[C@H]4CSCCC(=O)N5CN6CN(C5)C(=O)CCSC[C@H](NC(=O)[C@H](Cc5c[nH]c7ccccc57)NC(=O)[C@H](CCC(=O)O)NC(=O)[C@H](CCSC)NC(=O)[C@H](Cc5ccc(O)cc5)NC4=O)C(=O)N[C@@H](CC(=O)O)C(=O)N[C@@H](C(C)C)C(=O)N[C@@H]([C@@H](C)O)C(=O)N[C@@H](CC(=O)O)C(=O)N[C@@H](Cc4ccc(O)cc4)C(=O)NCC(=O)N[C@H](C(=O)N[C@@H](C)C(N)=O)CSCCC6=O)nn3)nn2)CSCCC(=O)N2CN3CN(C2)C(=O)CCSC[C@H](NC(=O)[C@H](Cc2c[nH]c4ccccc24)NC(=O)[C@H](CCC(=O)O)NC1=O)C(=O)N[C@@H](CC(=O)O)C(=O)N[C@@H](C(C)C)C(=O)N[C@@H]([C@@H](C)O)C(=O)N[C@@H](CC(=O)O)C(=O)N[C@@H](Cc1ccc(O)cc1)C(=O)NCC(=O)N[C@H](C(=O)N[C@@H](C)C(N)=O)CSCCC3=O` [BCY5454], the Kd under setting [1] was found to be 400 nM.
For the molecule “I: Ac-ACYMEWCDVTDYGCK-NH2 / II: Ac-ACYMEWCDVTDYGCK-NH2 / III: Ac-ACYMEWCDVTDYGCK-NH2 (linker I:2-I:7-I:14, II:2-II:7-II:14, III:2-III:7-III:14 via TATA; linker I:15-II:15-III:15 via X4) [BCY5460]”, the Kd under setting [1] was 239 nM.
With “I: Ac-ACYMEWCDVTDYGCK-NH2 / II: Ac-ACYMEWCDVTDYGCK-NH2 / III: Ac-ACYMEWCDVTDYGCK-NH2 (linker I:2-I:7-I:14, II:2-II:7-II:14, III:2-III:7-III:14 via TATA; linker I:15-II:15-III:15 via X3) [BCY5461]”, the Kd (Affinity KD determined by SPR) came out at 230 nM.
